Reference: paper PMC3304000 (Bioorganic & medicinal chemistry, 2012)
Values after ≈ are worked out from the molar mass of the structure shown. Values joined by “and” are separate entries in the source; they are usually repeats but may differ in a detail not shown here. Identical values can stand only once.

Columns and labels:
Test in all cases: microbe, parasite or virus in culture
Format in all cases: cell-based
Settings in all cases: Mycobacterium tuberculosis
[1] = test system: MDR-TB resistant to HREZSKP
[2] = test system: MDR-TB resistant to HREKP
[3] = test system: MDR-TB resistant to HRERb
[4] = test system: XDR-TB resistant to HRESKO
[5] = test system: XDR-TB resistant to HREKO
[6] = MDR-TB resistant to HRERb, value in parentheses
[7] = MDR-TB resistant to HRERb (isoniazid, rifampin, ethambutol, rifabutin)

Structure (SMILES) | MIC [1] | MIC [2] | MIC [3, 6] [µg/mL] | MIC [4] [µg/mL] | MIC [5] [µg/mL] | MIC [3, 7] [µM]
O=C(OCc1ccccc1)c1coc(-c2ccccc2)n1 [Compound 2] | 2.5 µg/mL (≈ 8.95 µM) | 0.3 µg/mL (≈ 1.07 µM) | 2.5 | 1.25 (≈ 4.48 µM) | 2.5 (≈ 8.95 µM) | 
O=C(OCc1ccccc1)c1csc(-c2ccccc2)n1 [Compound 5] | 10 µg/mL (≈ 33.9 µM) | 1.25 µg/mL (≈ 4.23 µM) | 10 | 5 (≈ 16.9 µM) | 5 (≈ 16.9 µM) | 
O=[N+]([O-])c1cn2c(n1)OC[C@@H](OCc1ccc(OC(F)(F)F)cc1)C2 [PA-824, reference compound] | 0.45 µM to 0.86 µM and 0.16 µg/mL to 0.31 µg/mL | 0.45 µM to 0.86 µM and 0.16 µg/mL to 0.31 µg/mL | 0.16 to 0.31 | 0.31 (≈ 0.863 µM) | 0.08 (≈ 0.223 µM) | 0.45 to 0.86
Cc1ccn2c(C(=O)OCc3ccccc3)c(C)nc2c1 [Compound 11, benzyl 2,7-dimethylimidazo[1,2-a]pyridine-3-carboxylate] | < 0.01 µg/mL | < 0.01 µg/mL | 0.16 | < 0.01 | < 0.01 | 0.6
